Test results published in patent US20030027867A1, “Use of R-NSAID compounds for anti-HIV treatment” (Myriad Genetics, Incorporated, priority 2001, published 2003).

Experiments:
[1] = in vitro; assay type: cell-based; conditions: human
Method: At assay termination the assay plates were stained with the soluble tetrazolium-based dye MTS (CellTiter Reagent, Promega) to determine cell viability and quantify compound toxicity. MTS is metabolized by the mitochondria enzymes of metabolically active cells to yield a soluble formazan product, allowing the rapid quantitative analysis cell viability and compound cytotoxicity. […] At termination of the assay, 20 μl of MTS reagent was added per well. The wells were incubated overnight for the HIV cytoprotection assay at 37° C. The incubation intervals were chosen based on empirically determined times for optimal dye reduction in each cell type. Adhesive plate sealers were used in place of the lids, the sealed plate was inverted several times to mix the soluble formazan product and the plate was read spectrophotometrically at 490 nm with a Molecular Devices Vmax plate reader.

[2] = test system: HIV-1; conditions: TC50/IC50 in human PBMCs
Method: (§1) R-flurbiprofen was supplied in powder form from Catalytica Pharmaceutical Inc., Greenville, N.C. and was solubilized in DMSO to yield a 200 mM stock solution. For these studies, the compound was tested at a high-test concentration of 1000 μM along with eight serial half-logarithmic dilutions (1000 μM down to 0.01 μM). AZT was used as a positive control antiviral compound.
(§2) Fresh human blood was obtained commercially from Interstate Blood Bank, Inc. (Memphis, Tenn.). […] The laboratory-adapted HIV-1IIIB strain was propagated and tittered in fresh human PBMCs; pre-titered aliquots of HIV-1ROJO and Hiv-1IIIB were removed from the freezer (−80° C.) and thawed rapidly to room temperature in a biological safety cabinet immediately before use. Phytohemagglutinin (PHA-P) was obtained from Sigma (St. Louis, Mo.) and recombinant IL-2 was obtained from Amgen (San Francisco, Calif.).
(§3) Fresh human PBMCs were isolated from screened donors, seronegative for HIV and HBV. Leukophoresed blood was diluted 1:1 with Dulbecco's phosphate buffered saline (PBS), layered over 14 mL of Ficoll-Hypaque density gradient in a 50 mL centrifuge tube and then centrifuged for 30 minutes at 600×g. Banded PBMCs were aspirated from the resulting interface and subsequently washed 2× with PBS by low speed centrifugation. After the final wash, cells were enumerated by trypan blue exclusion and re-suspended at 1×10^7 cells/mL in RPMI 1640 supplemented with 15% Fetal Bovine Serum (FBS), 2 mM L-glutamine, 4 μg/mL PHA-P. The cells were allowed to incubate for 48-72 hours at 37° C. After incubation, PBMCs were centrifuged and reset in RPMI 1640 with 15% FBS, 2 mM L-glutamine, 100 U/ml penicillin, 100 μg/mL streptomycin, 10 μg/mL gentamycin, and 20 U/mL recombinant human IL-2. PBMCs were maintained in this medium at a concentration of 1-2×10^6 cells/mL with biweekly medium changes until used in the assay protocol.
(§4) For the standard PBMC assay, PHA-P stimulated cells from at least two normal donors were pooled, diluted in fresh medium to a final concentration of 1×10^6 cells/mL, and plated in the interior wells of 96 well round bottom microplate at 50 μL/well (5×10^4 cells/well). Test drug dilutions were prepared at a 2× concentration in microtiter tubes and 100 μL of each concentration was placed in appropriate wells in a standard format. 50 μL of a predetermined dilution of virus stock was placed in each test well (final MOI ≈0.1). Wells with cells and virus alone were used for virus control. Separate plates were prepared identically without virus for drug cytotoxicity studies using an XTT assay system. The PBMC cultures were maintained for seven days following infection, at which time cell-free supernate samples were collected and assayed for reverse transcriptase activity as described below. […]

[3] = test system: HIV-1; test: microbe, parasite or virus in culture; conditions: Human immunodeficiency virus 1, PBMC, 168 h
Method: as §1, §2, §3, §4

With `Cc1cn([C@H]2C[C@H](N=[N+]=[N-])[C@@H](CO)O2)c(=O)[nH]c1=O` [AZT, 3′-Azido-3′-deoxythymidine] the CC50 at 7 days [1] was over 4 µM, the “Therapeutic Index” value [2] was over 400.00 and the IC50 [3] was 0.01 µM.
In the case of `CC(C(=O)O)c1ccc(-c2ccccc2)c(F)c1` (stereo not drawn) [R-flurbiprofen, 3-fluoro-4-phenylhydratropic acid], the CC50 at 7 days [1] is reported as 731 µM, the “Therapeutic Index” value [2] is reported as 3.1 and the IC50 [3] is reported as 238 µM.
